Data reported in patent US20250042891A1, “Compound containing structure of a heteroaromatic ring, pharmaceutical composition thereof and application thereof” (SHANGHAI YINGLI PHARMACEUTICAL CO., LTD, priority 2023, published 2025).
pIC50: −log10 of the molar value.

Columns and labels:
PARG (389-976) = PARG (389-976) (Homo sapiens (Human), UniProt Q86W56); assay: PARG enzyme inhibition assay (TR-FRET); assay type: biochemical
Protocol: PARG in vitro assays were conducted in standard 384-well plates in a total volume of 15 μL. 5 μL of PARG (389-976) (manufactured by Chempartner Chemical Co., Ltd.) in buffer (50 mM Tris-HCL 7.5, 30 mM KCl, 1 mM EDTA, 3 mM DTT, tween-20 0.01%, BSA 0.025%) was added at a final concentration of 1.5 pM to the 384-well plates containing the compounds to be tested, which was incubated for 30 min at room temperature. To the above mixture was added 5 μL Bio PARylated His-TEV-PARP1(2-1014) substrate (manufactured by Chempartner Chemical Co., Ltd.) at a final concentration of 12 nM, after addition, the resulting mixture was incubated for 30 minutes at room temperature. Then to the mixture was added detection reagent (5 μL) which was buffered with 50 mM Tris-HCL 7.5, 30 mM KCl, 1 mM EDTA, 3 mM DTT, tween-20 0.01%, BSA 0.025%, and consisted of 3 μM of compound PDD00017273 and 9 nM Mab anti-6HIS XL665 (Cisbio: 61HISXLA) and 0.9 nM streptavidin affinity terbium cryptate (Cisbio:610SATLA), all at 3× working concentrations (final concentrations of 1 μM, 3 nM and 0.3 nM, respectively). After 120 min incubation in the dark at room temperature, TR-FRET signals were measured at Ex 340 and Em 665 and Em 615. The ratio for each well was calculated as Em 665/Em 615 and the compound inhibition rate was calculated based on the obtained data.

HCC1428 = assay: CTG assay for proliferation inhibition of cell lines; assay type: cell-based; conditions: HCC1428, 7 days, CellTiter Glo
Protocol: (§1) The assay was conducted on either 384-well plates or 96-well plates. The procedures are as follows:
(§2) The cell suspensions were added to 384- or 96-well plates (384-well plate: 50 μL; 96-well plate: 100 μL) except for peripheral wells. The plates were incubated in a carbon dioxide incubator overnight, HCC1395, HCC1428 and NCI-H460 were placed in a carbon dioxide incubator of 5%, […] overnight. Prepared compounds (10 concentration gradients by serial 3-fold dilution) were added to the wells using the HPD300 micro-dosing instrument. The cell plates were incubated in a carbon dioxide incubator for 7 days. HCC1395, HCC1428 and NCI-H460 were incubated in a 5%, 37° CO2 incubator. On the day of plate measurement, 384- or 96-well plates were first equilibrated at room temperature for 10-30 minutes, then to the 384- or 96-well plate was added CellTiter Glo reagent (384-well plate: 25 μL; 96-well plate: 100 μL), shaken for 10 minutes away from light, and incubated for 10 minutes. The incubated plates were placed into Victor NIVO reader plates, and the pharmacodynamic inhibition curves were plotted and IC50 values were calculated using XLFit.

NCI-H460 = assay: as above; assay type: cell-based; conditions: NCI-H460, 7 days, CellTiter Glo
Protocol: as §1, §2

HCC1395 = assay: as above; assay type: cell-based; conditions: HCC1395, 7 days, CellTiter Glo
Protocol: as §1, §2

[1] = class symbol, Bio PARylated His-TEV-PARP1 substrate, TR-FRET
[2] = numeric value in parentheses under the class symbol

Sequence of PARG (389-976) (Q86W56 389-976): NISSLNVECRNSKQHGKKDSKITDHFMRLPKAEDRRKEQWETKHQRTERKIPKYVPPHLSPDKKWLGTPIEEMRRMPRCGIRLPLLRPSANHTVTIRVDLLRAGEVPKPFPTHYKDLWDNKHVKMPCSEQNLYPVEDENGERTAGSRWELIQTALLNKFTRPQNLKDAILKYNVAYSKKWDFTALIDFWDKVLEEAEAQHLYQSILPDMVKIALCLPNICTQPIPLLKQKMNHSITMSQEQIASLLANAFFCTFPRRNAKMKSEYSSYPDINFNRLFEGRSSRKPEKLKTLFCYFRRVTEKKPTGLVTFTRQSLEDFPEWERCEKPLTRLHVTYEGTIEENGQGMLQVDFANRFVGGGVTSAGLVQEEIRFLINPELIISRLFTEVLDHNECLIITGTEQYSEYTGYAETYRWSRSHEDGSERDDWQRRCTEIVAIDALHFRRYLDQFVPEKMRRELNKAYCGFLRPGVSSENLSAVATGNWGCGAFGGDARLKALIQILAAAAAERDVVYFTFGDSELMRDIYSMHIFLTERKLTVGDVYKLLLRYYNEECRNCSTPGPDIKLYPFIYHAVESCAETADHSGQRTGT

Row | SMILES | pIC50 (PARG (389-976); [1]) | pIC50 (PARG (389-976); [2]) | IC50 (HCC1428; Homo sapiens, 168 h) [µM] | IC50 (NCI-H460; Homo sapiens, 168 h) [µM] | IC50 (HCC1395; Homo sapiens, 168 h) [µM] | IC50 (HCC1428) [µM] | IC50 (NCI-H460) [µM] | IC50 (HCC1395) [µM]
1 | CC(C)C(=O)N1CCN(c2cc(S(=O)(=O)NC3(C#N)CC3)cc3c2cnn3-c2nnc(C(F)F)s2)CC1 [1′, reference compound] | 8.00 to 9.00 | 8.72 | 1.38 | 0.796 | 1.29 |  |  | 
2 | Cn1nc(-c2nnc(C(F)F)s2)c2cc(S(=O)(=O)NC3(C#N)CC3)cc(C3=CCN(S(=O)(=O)C4CCOCC4)CC3)c21 [Compound 5] | > 9.00 | 9.48 |  |  |  | 0.132 | 0.183 | 0.222
3 | CC(C)S(=O)(=O)c1ccc(-c2cc(S(=O)(=O)NC3(C#N)CC3)cc3c(-c4nnc(C(F)F)s4)nn(C)c23)cc1 [Compound 9] | 8.00 to 9.00 |  |  |  |  | 1.17 | 0.147 | 0.197
4 | Cn1nc(-c2nnc(C(F)F)s2)c2cc(S(=O)(=O)NC3(C#N)CC3)cc(C3=CCN(S(=O)(=O)C4CCC4)CC3)c21 [Compound 12] | > 9.00 |  | 0.151 | 0.148 | 0.169 |  |  | 
5 | Cn1nc(-c2nnc(C(F)F)s2)c2cc(S(=O)(=O)NC3(C#N)CC3)cc(C3=CCN(S(=O)(=O)C4(C)CC4)CC3)c21 [Compound 14] | > 9.00 |  | 0.399 | 0.122 | 0.126 |  |  | 
6 | CC(C)S(=O)(=O)N1CC=C(c2cc(S(=O)(=O)NC3(C#N)CC3)cc3c(-c4nnc(C(F)(F)F)s4)nn(C)c23)CC1 [Compound 15] | > 9.00 |  |  |  |  | 0.117 | 0.0561 | 0.0955
7 | CC(C)S(=O)(=O)N1CC=C(c2cc(S(=O)(=O)NC3(CF)CC3)cc3c(-c4nnc(C(F)F)s4)nn(C)c23)CC1 [Compound 18] | > 9.00 | 9.92 |  |  |  | 0.215 | 0.0408 | 0.0423
8 | CC(C)S(=O)(=O)N1CC=C(c2cc(S(=O)(=O)NC3(C)CC3)cc3c(-c4nnc(C(F)F)s4)nn(C)c23)CC1 [Compound 19] | > 9.00 | 9.92 |  |  |  | 0.196 | 0.0414 | 0.0532
9 | Cn1nc(-c2nnc(C(F)F)s2)c2cc(S(=O)(=O)NC3(C#N)CC3)cc(C3=CCN(S(=O)(=O)C4CNC4)CC3)c21 [Compound 20] | > 9.00 | 10.22 |  |  |  | 3.02 | 2.81 | 3.95
10 | Cn1nc(-c2nnc(C(F)F)s2)c2cc(S(=O)(=O)NC3(C#N)CC3)cc(C3=CCN(S(=O)(=O)C4COC4)CC3)c21 [Compound 22] | > 9.00 |  |  |  |  | 1.09 | 0.714 | 0.605
11 | COCC(C)S(=O)(=O)N1CC=C(c2cc(S(=O)(=O)NC3(C#N)CC3)cc3c(-c4nnc(C(F)F)s4)nn(C)c23)CC1 (stereo not shown) [Compound 23] | > 9.00 |  |  |  |  | 0.466 | 0.124 | 0.183
12 | CC(C)S(=O)(=O)c1ccc(-c2cc(S(=O)(=O)NC3(C#N)CC3)cc3c(-c4nnc(C(F)F)s4)nn(C)c23)cn1 [Compound 24] | > 9.00 |  |  |  |  | 0.578 | 0.493 | 0.65
13 | CC(C)[S+]([O-])N1CC=C(c2cc(S(=O)(=O)NC3(C#N)CC3)cc3c(-c4nnc(C(F)F)s4)nn(C)c23)CC1 (stereo not shown) [Compound 25] | > 9.00 | 9.47 |  |  |  | 0.152 | 0.185 | 0.206
14 | CC(C)S(=O)(=O)N1CC=C(c2cc(S(=O)(=O)NC3(C#N)CC3)cc3c(-c4nnc(C(F)(F)F)s4)nn(Cc4ccncc4)c23)CC1 [Compound 59] | 8.00 to 9.00 |  |  | 0.27 | 0.357 |  |  | 

Next, values leading:

Row | pIC50 (PARG (389-976); [1]) | pIC50 (PARG (389-976); [2]) | IC50 (HCC1428; Homo sapiens, 168 h) [µM] | IC50 (NCI-H460; Homo sapiens, 168 h) [µM] | IC50 (HCC1395; Homo sapiens, 168 h) [µM] | IC50 (HCC1428) [µM] | IC50 (NCI-H460) [µM] | IC50 (HCC1395) [µM] | SMILES
15 | > 9.00 | 9.80 |  |  |  | 0.0865 | 0.139 |  | CC(C)S(=O)(=O)N1CC=C(c2cc(S(=O)(=O)NC3(C#N)CC3)cc3c(-c4nnc(C(F)F)s4)nn(CCN(C)C)c23)CC1 [Compound 26]
16 | > 9.00 | 9.21 |  |  |  | 0.45 | 0.656 | 0.787 | CC(C)[S+]([O-])C1CC=C(c2cc(S(=O)(=O)NC3(C#N)CC3)cc3c(-c4nnc(C(F)F)s4)nn(C)c23)CC1 (stereo not shown) [Compound 30]
17 | 8.00 to 9.00 | 8.94 |  |  |  | 0.507 | 0.457 | 0.641 | CC(C)S(=O)(=O)C1CC=C(c2cc(S(=O)(=O)NC3(C#N)CC3)cc3c(-c4nnc(C(F)F)s4)nn(C)c23)CC1 (stereo not shown) [Compound 31]
18 | 8.00 to 9.00 | 8.99 |  |  |  | 0.232 | 0.21 | 0.177 | CN(C)S(=O)(=O)N1CC=C(c2cc(S(=O)(=O)NC3(C#N)CC3)cc3c(-c4nnc(C(F)F)s4)nn(C)c23)CC1 [Compound 32]
19 | > 9.00 |  |  |  |  | 0.616 | 0.5 | 0.691 | CC(C)S(=N)(=O)N1CC=C(c2cc(S(=O)(=O)NC3(C#N)CC3)cc3c(-c4nnc(C(F)F)s4)nn(C)c23)CC1 (stereo not shown) [Compound 33]
20 | > 9.00 |  |  |  |  | 0.698 | 0.162 | 0.284 | CC(C)S(=O)(=O)N1CCN(c2cc(S(=O)(=O)NC3(C#N)CC3)cc3c(-c4nnc(C(F)(F)F)s4)nn(C)c23)CC1 [Compound 35]
21 | > 9.00 |  |  |  |  | 0.0978 | 0.0729 | 0.127 | CC(C)S(=O)(=O)N1CCC(c2cc(S(=O)(=O)NC3(C#N)CC3)cc3c(-c4nnc(C(F)F)s4)nn(C)c23)=C(CO)C1 [Compound 36]
22 | > 9.00 |  |  |  |  | 0.4 | 0.366 | 0.432 | CC(C)S(=O)(=O)N1CCC2(c3cc(S(=O)(=O)NC4(C#N)CC4)cc4c(-c5nnc(C(F)F)s5)nn(C)c34)OC2C1 (stereo not shown) [Compound 38]
23 | > 9.00 |  |  |  |  | 0.369 | 0.429 | 0.827 | Cn1nc(-c2nnc(C(F)F)s2)c2cc(S(=O)(=O)NC3(C#N)CC3)cc(C3=CCN(S(=O)(=O)C4CCNCC4)CC3)c21 [Compound 39]
24 | > 9.00 |  |  |  |  | 0.454 | 0.261 | 0.3 | CN=S(=O)(C(C)C)N1CC=C(c2cc(S(=O)(=O)NC3(C#N)CC3)cc3c(-c4nnc(C(F)F)s4)nn(C)c23)CC1 (stereo not shown) [Compound 40]
25 |  |  |  |  |  |  | 1.07 | 1.05 | CC(C)S(=O)(=O)N1CC=C(c2cc(S(=O)(=O)NC3(C#N)CC3)cc3c(-c4nnc(C(F)F)s4)n(CC4CC4)nc23)CC1 [Compound 44]
26 | 7.00 to 8.00 |  |  |  |  |  | 2.05 | 2.04 | CC(C)[S+]([O-])c1ccc(-c2cc(S(=O)(=O)NC3(C#N)CC3)cc3c(-c4nnc(C(F)(F)F)s4)nn(C)c23)nc1 (stereo not shown) [Compound 48]
27 | 8.00 to 9.00 |  |  |  |  | 0.201 | 0.216 | 0.253 | CC(C)S(=O)(=O)N1CC=C(c2cc(S(=O)(=O)NC3(C#N)CC3)cc3c(-c4nnc(C(F)(F)F)s4)nn(CC(F)(F)F)c23)CC1 [Compound 58]
28 | 8.00 to 9.00 |  | 0.0778 | 0.115 | 0.181 |  |  |  | CC(C)S(=O)(=O)N1CC=C(c2cc(S(=O)(=O)NC3(C#N)CC3)cc3c(-c4nnc(C(F)(F)F)s4)nn(CC4COC4)c23)CC1 [Compound 60]
29 | > 9.00 |  |  |  |  |  | 0.292 | 0.296 | CC(C)S(=O)(=O)N1CC=C(c2cc(S(=O)(=O)NC3(C#N)CC3)cc3c(-c4nnc(C(F)F)s4)nn(C)c23)C(F)C1 (stereo not shown) [Compound 69]
30 | > 9.00 |  |  |  |  | 0.0576 |  | 0.0462 | CC(C)S(=O)(=O)N1CCC(c2cc(S(=O)(=O)NC3(C#N)CC3)cc3c(-c4nnc(C(F)(F)F)s4)nn(C)c23)=C(CO)C1 [Compound 73]
31 | 8.00 to 9.00 |  |  |  |  | 0.0621 |  | 0.156 | CC(C)S(=O)(=O)N1CCC(c2cc(S(=O)(=O)NC3(C#N)CC3)cc3c(-c4nnc(C(F)(F)F)s4)nn(C)c23)=C(CN(C)C)C1 [Compound 74]
32 | 8.00 to 9.00 |  |  |  |  | 0.532 | 0.426 | 0.5 | CC(C)S(=O)(=O)N1CC=C(c2cc(S(=O)(=O)NC3(C#N)CC3)cc3c(-c4ccc(C(F)F)nn4)nn(C)c23)CC1 [Compound 78]
